{"source": "patent US4347177A", "about": "“Compounds and methods of making them” (Burroughs Wellcome Co., priority 1980, dated 1982)", "experiment": "Pharmacokinetics of bupropion in plasma after oral administration to four normal male subjects (RIA using 3H bupropion)", "format": "in vivo", "conditions": "human plasma, oral 200 mg bupropion-HCl (two 100 mg tablets)", "protocol": "Samples of six standard solutions of bupropion in blank plasma having concentrations of 0.39 to 50 ng/ml) are pipetted (0.1 ml each) in duplicate into 12×75 mm plastic tubes. Duplicate non-specific binding (no antibody) and maximum binding tubes (no unlabeled bupropion) receive 0.1 ml blank plasma. Spiked plasma controls at several concentrations of (e.g., 1.0, 10.0, and 100 ng/ml) and plasma samples for assay (diluted into the standard range with blank plasma if necessary) are assayed in duplicate. After being placed in an ice bath, all tubes receive (in order) 0.2 ml ^3 H bupropion (416 pg. containing approximately 10^4 cpm) and 0.7 ml anti-bupropion serum (raised to a ring-functionalized immunogen according to the present invention) (at pre-determined dilutions such that approximately 40% of the ^3 H bupropion added is bound), both in assay buffer (0.05 M phosphate-bufferedisotonic saline, containing 0.01 M EDTA and 0.1% gelatin, pH 7.0). […] The supernatants, containing antibody-bound ^3 H bupropion are carefully decanted into liquid scintillation cocktail for quantitation of ^3 H. After counts (minus average non-specific binding cpm) are expressed as percentages of average maximum binding cpm, bupropion concentrations in plasma samples and spiked controls are read from a standard curve (log concentration vs percent average maximum binding).\nThe procedure of Example X has been applied to a study of bupropion (supplied as Wellbatrin, produced by Burroughs Wellcome Co.) pharmacokinetics in plasma after oral administration of 200 mg bupropion-HCl (in two 100 mg tablets) to four normal male subjects. Venous blood samples were collected at various times following dosing, and concentrations in plasma samples determined as described. […]", "data": [{"smiles": "CC(NC(C)(C)C)C(=O)c1cccc(Cl)c1", "note": "(racemic) [bupropion, (±)-2-tert-butylamino-3'-chloropropiophenone]", "values": [{"measurement": "Cmax", "setting": "mean ± S.D., read-out: maximum plasma bupropion concentration", "value": "217 ± 37", "unit": "ng/mL"}, {"measurement": "Tmax", "setting": "mean ± S.D., read-out: time to reach maximum concentration", "value": "1.5 ± 0.4", "unit": "h"}, {"measurement": "half-life", "setting": "± S.D., read-out: mean elimination half-life (converted)", "value": "2.9 ± 0.4", "unit": "h"}]}]}
